Data as given in patent US20130177904A1, “ARNT ISOFORM 3 AS A PREDICTOR OF AMINOFLAVONE RESPONSIVENESS IN CANCER CELLS” (UNIVERSITY OF MARYLAND, BALTIMORE, priority 2010, published 2013).

Experiments:
[1] = tested on: PS2 and Cyp1A1 promoters in T47D; experiment: Chromatin Immunoprecipitation (ChIP), AhR and ER crosstalk; format: cell-based, Human; conditions: 4 or 8 hours post-treatment with AF, FIG. 3
Source text: (§1) Considering that the AhR and ER are both nuclear receptors and act as transcription factors, modulation of ER action after AhR activation by AF (“crosstalk”) was theorized to contribute to overall AF effects in ER+ cell lines. Therefore, Chromatin Immunoprecipitation (ChIP) was employed to study the potential crosstalk of AhR and ER after AF action at the PS2 promoter, a classical ER/estradiol inducible gene, and on Cyp1A1, a classical AF/AhR inducible gene known to be induced by AF. Transcription components studied were the AhR, ER, ARNT (the AhR transcriptional partner), RNA Polymerase II and CBP. CBP is a histone acetyl transferase associated with productive AhR induction of gene expression (Hestermann, E. V. and M. Brown, Mol Cell Biol, 23(21):7920-5 (2003)). In both T47D and MCF7 ER+ cell lines, all transcription components tested were present on the Estradiol inducible PS2 gene promotor, including the AhR. On the Cyp1A1 promotor, all the apparatus excluding CBP was present.
(§2) ChIP analysis was performed employing the Chromatin Immunoprecipitation (ChIP) Assay Kit (Millipore) as per company recommendations. […]
(§3) The resultant DNA was analyzed by PCR employing GoTaq Green Master Mix (Promega) using the following protocol: 94° C. for 2 minutes for initial melting, followed by 35 cycles at 94° C. for 30 seconds, 55° C. for 40 seconds, 72° C. […]

[2] = tested on: PS2 and Cyp1A1 promoters in MCF7; experiment: as above; format: cell-based, Human; conditions: MCF7, 4 or 8 hours post-treatment with AF, FIG. 3
Source text: as §1, §2, §3

CAKi1 = CAKi1 renal cell line, NIH dose response data; cited from earlier work
T47D = experiment: MTS cell proliferation assay; format: cell-based; conditions: Homo sapiens, 120 h; T47D (ER+), 5 days after treatment, estimated from graph FIG. 1; read-out: IC50 (50% Inhibitory Concentration)
Experimental: (§4) The CellTiter 96 Aqueous MTS Reagent (Promega, Cat. G5421 WI) was employed to measure the effects of AF on cell proliferation. Briefly, cells in 100 μl were seeded in 96-well plates (Nunc) at a density of 2,000 cells/well and allowed to attach overnight. AF was added the following day in final concentrations of 0.1 nM to 100 μM in replicas of 8. Proliferation was measured 5 days later by adding 20 μl MTS reagent to the plates and incubation at 37° C. for 2 hours. Viable cells converted the MTS reagent to a formazan product, which was measured 4 hours later at 490 nm using a Synergy HT Multi-Detection Microplate Reader, and KC4 software (Bio-Tek). Cell proliferation was compared to DMSO treated controls as a percentage, against the background growth at the time of AF treatment.
(§5) For IC50 (50% Inhibiting Concentration) determination, vehicle treated cells were deemed as 100% cell growth. Percent growth inhibition was calculated by dividing AF treated MTS values by MTS values of vehicle treated cells, subtracting background (media alone without cells) from both prior to calculations. […] The data as calculated is more representative of percent cell survival and therefore defined as Inhibitory Concentrations (IC50) rather than GI50 values. That said, they provide for a highly accurate means for comparing effects of AF. IC50 values were estimated directly from the graph (FIG. 1), though model fitting employing BiodataFit 1.02 (Chang Biosciences, found on the world wide web at changbioscience.com/stat/ec50ht.html) provided for highly similar results with model fitting correlations of 0.85 or above and generally small SEE values (standard error of the IC50 estimate).

MDA-MB-468 = experiment: MTS cell proliferation assay; format: cell-based; conditions: Homo sapiens, 120 h; MDA-MB-468 (ER−), 5 days after treatment, estimated from graph FIG. 1; read-out: IC50 (50% Inhibitory Concentration)
Experimental: as §4, §5

MDA-MB-231 = experiment: MTS cell proliferation assay; format: cell-based; conditions: Homo sapiens, 120 h; MDA-MB-231 (ER−), 5 days after treatment, estimated from graph FIG. 1; read-out: IC50 (50% Inhibitory Concentration)
Experimental: as §4, §5

MCF7 = experiment: MTS cell proliferation assay; format: cell-based; conditions: Homo sapiens, 120 h; MCF7 (ER+), 5 days after treatment, estimated from graph FIG. 1; read-out: IC50 (50% Inhibitory Concentration)
Experimental: as §4, §5

Hs578t = experiment: MTS cell proliferation assay; format: cell-based; conditions: Homo sapiens, Hs-578T, 120 h; Hs578t (ER−), 5 days after treatment, estimated from graph FIG. 1; read-out: IC50 (50% Inhibitory Concentration)
Experimental: as §4, §5

K562 = K562 leukemia cell line, NIH dose response data; cited from earlier work

IC50 (T47D): 110 nM
IC50 (MDA-MB-468): 4 nM
IC50 (MDA-MB-231): 70000 nM
IC50 (MCF7): 70 nM
Compound: Cc1c(F)c(N)c2c(=O)cc(-c3ccc(N)c(F)c3)oc2c1F [AF, 5-amino-2-(4-amino-3-fluorophenyl)-6,8-difluoro-7-methylchromen-4-one]
transcriptional adjustment at PS2 and Cyp1A1 promoters (ChIP) [1]: dissociation of ER-related transcriptional control elements from the PS2 estrogenic promoter and their association with the Cyp1A1 promotor
transcriptional adjustment at PS2 and Cyp1A1 promoters (ChIP) [2]: dissociation of ER-related transcriptional control elements from the PS2 estrogenic promoter and their association with the Cyp1A1 promotor
AF sensitivity (CAKi1): AF sensitive
IC50 (Hs578t): 20000 nM
AF sensitivity (K562): AF sensitive
